What was measured:
[1] = system: 6-4 photoproducts (6-4PP); experiment: Quantitative measurement of 6-4 photoproducts after UVB; assay type: cell-based; settings: with vs without carnosol
Text: FIG. 5F: Quantitative measurement of 6-4 photoproducts (6-4PP), with and without UVB, and with and without carnosol. *p<0.05 versus corresponded control group
There are two major forms of DNA damage caused by UVB radiation: one is the direct DNA damage which forms CPD; the other is the oxidation-caused DNA damage, which causes the formation of 6-4 PP. In order to identify which form of DNA damage is protected by carnosol, a quantitative assay to identify the production of both DNA damage products after UVB radiation with or without carnosol treatment was performed.

[2] = UVB irradiation of carnosol in DMSO, Mass Spectrum; assay type: physicochemical; settings: 50 mJ/cm^2 UVB
Procedure: FIG. 10B. The carnosol was irradiated with UVB first in the DMSO solution, and then a Mass Spectrum was run to detect the decomposition of the compound.
FIG. 10C. Four major decomposed compounds were detected, with their molecular structure and weight solved.
UVB was generated from a Bench XX-Series UV Lamp (UVP Inc.) equipped with two 15-watt UVB tubes (UVP Inc.). The intensity of UVB was calibrated by a UVP model UVX digital radiometer (UVP Inc.) after the lamps warmed up for 5 min. For irradiating cells, the dose rate for 8 mJ/cm^2 or 50 mJ/cm^2 of UVB radiation was 0.8 or 3.8 mW/s respectively. Medium was removed before exposing the cells to UVB. After UVB radiation, fresh medium was added to the culture plates with or without drugs, and the cells were continue incubating at 37° C. with 5% CO2 until further analysis. Carnosol was disovled in DMSO and was irradiated with 50 mJ/cm^2 of UVB radiation at a dose rate of 3.8 mW/s before subjecting to cells or structure analysis using Mass Spectrum.

[3] = system: A431 human squamous carcinoma cell; experiment: MTT cell viability assay, A431; assay type: cell-based; settings: A431, carnosol plus 50 mJ/cm^2 UVB, 24 h, vs no treatment control; UVB alone about 50%
Procedure: FIGS. 9A-9B. Carnosol decreases A431 cancer cell progression. Squamous carcinoma cell A431 was used to determine the effect of carnosol on cancer cell progression. (FIG. 9A) Effect of carnosol on cell viability. Cells were treated upon 50 mJ/cm^2 UVB radiation with or without carnosol treatment. After 24 h, cells were collect and MTT assay was performed to determine the cell viability. *p<0.05 versus control group, **p<0.05 versus UV group at indicated time point. (FIG. 9B) Effect of carnosol on clonogenic assay. Cells were exposed to 8 mJ/cm^2 UVB exposure in the presence or absence of carnosol. 5×10^3 cells were plated into 6 well plate immediately after treatment and incubated for […]. The error bars present the standard deviation of three sets of independent experiments. *p<0.05 versus control group, **p<0.05 versus UV group at indicated time point.
Since carnosol protects cell death upon UVB radiation, how carnosol affects skin cancer cells was also determined. A431 human squamous carcinoma cell was used as it is one of the cancer types that keratinocyte would develop. Cell viability was determined by MTT assay.

[4] = system: HaCaT cells; experiment: Comet assay for HaCaT exposed to UVB radiation; assay type: cell-based, Human; settings: semi-quantitative by Image J
Text: FIG. 5D: Comet assay for HaCaT exposed to UVB radiation. After cell treatment, cells were trypsinized and collect for comet assay. The tail intensity was semi-quantitatively analyzed using Image J.
Both human keratinocyte (HaCaT) and mouse embryonic fibroblast (MEF) cells were used, and the protein levels of γH2AX and phosphor-Chk were used as DNA damage marker. […] Similar results are observed in MEF cells as both the phosphorylation level of H2AX and Chk reduced at early stage post UVB radiation (FIG. 5B). […] To further show the protection effect of carnosol on UVB-irradiated cell, a comet assay was performed. […] Thus, carnosol ast least partially protect the DNA damage from UVB radiation.

[5] = system: IκB; experiment: Western blot for IκB protein level, HaCaT cells; assay type: cell-based, Human
Procedure: FIGS. 7A-7F: Carnosol inhibited UVB-induced NF-κB activation. Cells were exposed to UVB radiation in the presence or absence of carnosol. Cells were lysed at indicated time point and protein levels were measured by western blot analysis. (FIG. 7A) Western blot for IκB protein level in HaCaT cells at 2, 4 h post UVB radiation at 1, 10 or 20 μM carnosol treatment. (FIG. 7B) Western blot analysis for IκB protein level in HaCaT cells at 6 h post UVB radiation in the presence or absence of carnosol. (FIG. 7C) Western blot analysis for IκB protein level in MEF cells at 6 h post UVB radiation in the presence or absence of carnosol. (FIG. 7D) Western blot for 5276 site phosphorylation of NF-κB in HaCaT cells at 6 h post UVB with indicated carnosol concentration. (FIG. 7E) EMSA assay for HaCaT cells at 2, 4, 6 h post UVB radiation in the presence or absence of carnosol (20 μM). (FIG. 7F) Statistical analysis of the EMSA assay using two to three sets of independent experiments. *p<0.05 versus control group, **p<0.05 versus UV group at indicated time point.
Cells were lysed with Nonidet P-40 (NP-40) lysis buffer (2% NP-40, 80 mM NaCl, 100 mM Tris-HCl pH 8.0, 0.1% SDS) with proteinase inhibitor mixture (Complete™, Roche Molecular Biochemicals) at indicated time point. […] Protein concentration was measured by Protein DC Assay kit (Bio-Rad Laboratories). […]

**Q.** What does the source list for `CC(C)c1cc2c(c(O)c1O)[C@@]13CCCC(C)(C)[C@@H]1C[C@@H]2OC3=O` [carnosol]?
**A.** 6-4 PP formation after UVB radiation [1]: no significant reduction; decomposition upon UVB radiation [2]: breaks down to 4 major products; cell viability [3]: 30%; comet tail intensity upon UVB radiation [4]: almost by half; IκB protein level ([5]; HaCaT, 2, 4 h post UVB, dose dependent (1, 10, 20 μM)): protects IκB level; IκB protein level ([5]; HaCaT, 6 h post UVB): protection exists at least until 6 h

Reference: US20190388389A1, “METHODS AND COMPOSITIONS OF CARNOSOL FOR INHIBITING UVB-INDUCED SKIN DAMAGE” (Ohio University, priority 2017, published 2019)
